# Source: patent US9504676B2, “Molecules inhibiting a metabolic pathway involving the Syk protein tyrosine kinase and method for identifying said molecules” (CENTRE NATIONAL DE LA RECHERCHE SCIENTIFIQUE, priority 2008, dated 2016)
# Read-outs that look alike come from different tables or passages of the source.
# Test system: mast cells
# Assay: Early and delayed mast cell responses induced by FcεRI aggregation
# Assay type: cell-based
# Procedure: Binding of Btk and Vav with SLP-76 is critical for regulating PLC-γ activity on the membrane, calcium mobilisation and granule exocytosis^27, 28.
# • 1) Chemical products and antibodies. A chemical bank of 3000 molecules (a varied subset) was acquired from ChemBridge, Inc. (San Diego, Calif.). Stocks of solutions of small molecules were prepared at a rate of 10 mM in DMSO (dimethylsulphoxide), except for C-13 (methyl 2-{5-[(3-benzyl-4-oxo-2-thioxo-1,3-thiazolidin-5-ylidene)methyl]-2-furyl}benzoate, ChemBridge ID No. 6197026) prepared in DMF (dimethylformamide). Unless specified otherwise, all the reagents were supplied by Sigma. Dinitrophenyl (DNP) hapten was acquired from Calbiochem. […] The binding of G4G11 with Syk was assessed by adding the 9E10 monoclonal antibody conjugated with HRP detecting the amino acid sequence EQKLISEEDLN of human c-myc protein located at the C-terminal end of the scFv fragment. To generate Syk mutants, targeted mutagenesis was used on GST:Syk 6-242 protein and the binding of G4G11 with the mutants was assessed in the presence of 5 μM of C-13. • 3) Cells, culture conditions and functional tests. […] The level of β-hexosaminidase released was measured 10 min later and the TNF-α titration was performed by means of a cytotoxicity test on L929 cells as described previously^10, 3 hours after stimulation. […]
structure (smiles),measurement,setting,value
"COC(=O)c1ccccc1-c1ccc(/C=C2/SC(=S)N(Cc3ccccc3)C2=O)o1 [Molecule C-13, methyl 2-{5-[(3-benzyl-4-oxo-2-thioxo-1,3-thiazolidin-5-ylidene)methyl]-2-furyl}benzoate]",IC50,"read-out: estimated IC50, delayed mast cell response (TNF-α secretion)",~2000 nM
same,IC50,"read-out: estimated IC50, early mast cell response (β-hexosaminidase release)",~2000 nM
